Reference: article PMC6220303 (EMBO Molecular Medicine, 2018)
Where two headings read alike, the source gives them in different places.

Legend:
[1] = system: healthy participants ≥ 60 years; assay: Adverse events after single dose (Appendix Table S5); type: in vivo, human
Description: (§1) For further details, see the Appendix Table S10 in Appendix and the accompanying clinical protocols synopsis (Appendix Table S11).
Appendix Table S3. Overview of completed clinical studies with CNP520
Study description Population No. of Participants Dose/Frequency […]
First-in-human, randomized, 18-55 yrs 38 / 14 Single dose (10, 30, 90, […]
controlled, single and multiple CNP520 vs placebo) ascending oral dose study to Single dose (10, 90, 300,

clinical = type: in vivo, human; settings: for Mean concentration: AUC divided by 24 hours; for concentration at 3 months: read-out: steady-state plasma level
Experimental: The lower limit of quantification (LLOQ) was 1 ng/ml in plasma and 2 ng/ml in urine and CSF, except for the 3‐month study where the method for CSF was more sensitive (LLOQ 0.1 ng/ml). Plasma PK parameters were calculated using actual recorded sampling times and non‐compartmental methods with Phoenix WinNonlin version 6.4 (Certara, Inc., Princeton, NJ, USA).
as §1

C[C@@]1(c2nc(NC(=O)c3ncc(C(F)(F)F)cc3Cl)ccc2F)CO[C@@](C)(C(F)(F)F)C(N)=N1 [CNP520]
AE incidence: Ear and labyrinth disorders ([1]; single dose 10 mg, N = 6): 0 (0.0) n (%) | AE incidence: Eye disorders ([1]; single dose 10 mg, N = 6): 0 (0.0) n (%) | AE incidence: Gastrointestinal disorders ([1]; single dose 10 mg, N = 6): 1 (16.7) n (%) | AE incidence: General disorders and administration site conditions ([1]; single dose 10 mg, N = 6): 1 (16.7) n (%) | AE incidence: Infections and infestations ([1]; single dose 10 mg, N = 6): 0 (0.0) n (%) | AE incidence: Injury, poisoning and procedural complications ([1]; single dose 10 mg, N = 6): 0 (0.0) n (%) | AE incidence: Metabolism and nutrition disorders ([1]; single dose 10 mg, N = 6): 1 (16.7) n (%) | AE incidence: Nervous system disorders ([1]; single dose 10 mg, N = 6): 2 (33.3) n (%) | AE incidence: Psychiatric disorders ([1]; single dose 10 mg, N = 6): 0 (0.0) n (%) | AE incidence: Respiratory, thoracic and mediastinal disorders ([1]; single dose 10 mg, N = 6): 0 (0.0) n (%) | AE incidence: Vascular disorders ([1]; single dose 10 mg, N = 6): 0 (0.0) n (%) | Participants with at least one AE ([1]; single dose 10 mg, N = 6): 5 (83.3) n (%) | AE incidence: Ear and labyrinth disorders ([1]; single dose 90 mg, N = 6): 0 (0.0) n (%) | AE incidence: Eye disorders ([1]; single dose 90 mg, N = 6): 1 (16.7) n (%) | AE incidence: Gastrointestinal disorders ([1]; single dose 90 mg, N = 6): 0 (0.0) n (%) | AE incidence: General disorders and administration site conditions ([1]; single dose 90 mg, N = 6): 0 (0.0) n (%) | AE incidence: Infections and infestations ([1]; single dose 90 mg, N = 6): 0 (0.0) n (%) | AE incidence: Injury, poisoning and procedural complications ([1]; single dose 90 mg, N = 6): 0 (0.0) n (%) | AE incidence: Metabolism and nutrition disorders ([1]; single dose 90 mg, N = 6): 0 (0.0) n (%) | AE incidence: Nervous system disorders ([1]; single dose 90 mg, N = 6): 1 (16.7) n (%) | AE incidence: Psychiatric disorders ([1]; single dose 90 mg, N = 6): 1 (16.7) n (%) | AE incidence: Respiratory, thoracic and mediastinal disorders ([1]; single dose 90 mg, N = 6): 0 (0.0) n (%) | AE incidence: Vascular disorders ([1]; single dose 90 mg, N = 6): 1 (16.7) n (%) | Participants with at least one AE ([1]; single dose 90 mg, N = 6): 3 (50.0) n (%) | AE incidence: Ear and labyrinth disorders ([1]; single dose 300 mg, N = 8): 1 (12.5) n (%) | AE incidence: Eye disorders ([1]; single dose 300 mg, N = 8): 0 (0.0) n (%) | AE incidence: Gastrointestinal disorders ([1]; single dose 300 mg, N = 8): 0 (0.0) n (%) | AE incidence: General disorders and administration site conditions ([1]; single dose 300 mg, N = 8): 0 (0.0) n (%) | AE incidence: Infections and infestations ([1]; single dose 300 mg, N = 8): 0 (0.0) n (%) | AE incidence: Injury, poisoning and procedural complications ([1]; single dose 300 mg, N = 8): 0 (0.0) n (%) | AE incidence: Metabolism and nutrition disorders ([1]; single dose 300 mg, N = 8): 0 (0.0) n (%) | AE incidence: Nervous system disorders ([1]; single dose 300 mg, N = 8): 2 (25.0) n (%) | AE incidence: Psychiatric disorders ([1]; single dose 300 mg, N = 8): 0 (0.0) n (%) | AE incidence: Respiratory, thoracic and mediastinal disorders ([1]; single dose 300 mg, N = 8): 0 (0.0) n (%) | AE incidence: Vascular disorders ([1]; single dose 300 mg, N = 8): 0 (0.0) n (%) | Participants with at least one AE ([1]; single dose 300 mg, N = 8): 6 (75.0) n (%) | AE incidence: Ear and labyrinth disorders ([1]; single dose 750 mg, N = 9): 0 (0.0) n (%) | AE incidence: Eye disorders ([1]; single dose 750 mg, N = 9): 0 (0.0) n (%) | AE incidence: Gastrointestinal disorders ([1]; single dose 750 mg, N = 9): 2 (22.2) n (%) | AE incidence: General disorders and administration site conditions ([1]; single dose 750 mg, N = 9): 1 (11.1) n (%) | AE incidence: Infections and infestations ([1]; single dose 750 mg, N = 9): 0 (0.0) n (%) | AE incidence: Injury, poisoning and procedural complications ([1]; single dose 750 mg, N = 9): 3 (33.3) n (%) | AE incidence: Metabolism and nutrition disorders ([1]; single dose 750 mg, N = 9): 0 (0.0) n (%) | AE incidence: Nervous system disorders ([1]; single dose 750 mg, N = 9): 3 (33.3) n (%) | AE incidence: Psychiatric disorders ([1]; single dose 750 mg, N = 9): 0 (0.0) n (%) | AE incidence: Respiratory, thoracic and mediastinal disorders ([1]; single dose 750 mg, N = 9): 0 (0.0) n (%) | AE incidence: Vascular disorders ([1]; single dose 750 mg, N = 9): 0 (0.0) n (%) | Participants with at least one AE ([1]; single dose 750 mg, N = 9): 8 (88.9) n (%) | Mean concentration (clinical; 2 mg, 3 months, Day 91): 25.6 nM | Mean concentration (clinical; 10 mg, 3 months, Day 91): 123 nM | Mean concentration (clinical; 10 mg, 14 days, Day 14): 114 nM | Mean concentration (clinical; 30 mg, 14 days, Day 14): 292 nM | Mean concentration (clinical; 35 mg, 3 months, Day 91): 371 nM | Mean concentration (clinical; 85 mg, 3 months, Day 91): 910 nM | Mean concentration (clinical; 90 mg, 14 days, Day 14): 762 nM | Mean concentration (clinical; 300 mg, 14 days, Day 14): 2312 nM | Tmax (clinical; both sexes, human, plasma, oral, 30 mg, 14 days, Day 14, median (min–max)): 3 h | Cmax (clinical; both sexes, human, plasma, oral, 30 mg, 14 days, Day 14, ≥ 60 years, mean (CV%)): 211 ng/mL | AUC(0-t) (clinical; both sexes, human, plasma, oral, 30 mg, AUC 0–24h, 30 mg, 14 days, Day 14, mean (CV%)): 3580 ng·h/mL | half-life (clinical; both sexes, human, plasma, oral, participants ≥ 60 years of age, single dose, read-out: mean terminal T 1/2): 81.4 to 109 h | concentration at 3 months (clinical; both sexes, human, plasma, oral, 2-mg dose daily, participants ≥ 60 years): 11.9 ng/mL | concentration at 3 months (clinical; both sexes, human, plasma, oral, 2-mg dose daily): 23 nM | concentration at 3 months (clinical; both sexes, human, plasma, oral, 85-mg dose daily, participants ≥ 60 years): 425 ng/mL | concentration at 3 months (clinical; both sexes, human, plasma, oral, 85-mg dose daily): 828 nM | free C max (clinical; human plasma, 85 mg, 3-month study): 48 nM
